Results published in patent EP0711558A1, “Compositions for topical application to skin, hair and nails” (UNILEVER PLC, priority 1994, dated 1996).
Read-outs that look alike come from different tables or passages of the source.

Columns and labels:
[1] = test system: Normal human keratinocytes; assay: Rate of DNA synthesis in keratinocytes (3H-thymidine incorporation; a decrease indicates growth inhibition / differentiation); type: cell-based; conditions: for activity at 3 µM: 3 μM lipid alone, read-out: DNA synthesis, 0 nM 25-OH-D3; for cell growth inhibition: Table 1 (image)
Experimental: Methodology Used for Determining the Rate of DNA Synthesis in Keratinocytes After Treatment With Various Actives
• 1. Normal human keratinocytes isolated from neonatal foreskins by trypsin treatment were grown in DME medium/10% fetal calf serum in the presence of irradiated 3T3 mouse fibroblasts for establishing dividing keratinocyte colonies. Keratinocytes were grown under the above condition until their third passage. • 2. For the experiments, third passage keratinocytes were plated into a serum-free keratinocyte growth medium (KGM; obtained from Clonetics Corporation, San Diego, CA) containing 0.15 mM calcium. 20,000 to 30,000 cells were plated into each well of 24 well cell culture plates and grown for 5 days, until the cells reach about 80% confluence. • 3. Medium was changed to fresh medium and the various test materials were added to the medium from an ethanolic stock solution (10 AM). The final ethanol concentration in the cultures was kept below 0.2%. Control cultures received no tested material but were dosed with 0.2% ethanol. Each compound or combination was tested in three separate wells. By 4PM, 1 uCi of ³H-thymidine (Amersham Corp., Sp activity 40 Ci/mmol) was added to the 1 ml medium in each well. The cells were incubated overnight and 24 hours later (10 AM next day) the amount of ³H-thymidine associated with the cellular DNA of keratinocytes was assessed as described below. • 4. The medium was aspirated, and the wells washed with 1 ml phosphate-buffered saline. The DNA and proteins of the cells in the plate were then precipitated by adding 1 ml of ice-cold 10% trichloroacetic acid (TCA). The plates were left on ice for 30 minutes to complete the precipitation process. TCA was then aspirated and each well was then washed four times with 5% TCA. The plates were then dried on a filter pad and the cells in the wells were dissolved in 0.5 ml of 0.1 N sodium hydroxide. The sodium hydroxide was then neutralized using 0.1 N hydrochloric acid and the solution (1 ml total volume) was then transferred to a scintillation vial. 100 ul samples from each vial were used for protein assay using BCA protein assay reagent obtained from Pierce Chemical Company. 8 ml of a scintillation fluid (Ecolume) was added to the rest of the solution in the vial, and the vials were counted in a scintillation counter to determine the amount of radioactivity in each vial. The DNA synthesis rate was then calculated as cpm ³H thymidine incorporated into total cellular DNA/microgram of cell protein for each individual well. Mean and standard deviation for each group was also calculated. […] All lipids listed in Tables 1-5 below were synthesized in-house. 25-OH-D₃ and 1,25-(OH)₂D₃ were obtained from Hoffman La Roche. Vitamin D ₃ was obtained from Sigma. • 6.

keratinocytes = conditions: as shown by Bikle et al.; cited from earlier work
[2] = test system: Normal human keratinocytes; assay: Vitamin D3 metabolites' uptake by keratinocytes (cell associated radioactivity); type: in vitro ADME; conditions: for cell associated radioactivity: 60 picomolar; for rate of uptake by keratinocytes: Table 6, in words
Experimental: Vitamin D₃ Metabolites' Uptake:
Normal human keratinocytes were grown to confluence in Keratinocyte growth medium (KGM) containing 0.15 mM calcium. Medium was changed to fresh medium. The cells were then incubated in duplicate with 10,000 cpm (60 picomolar, or 25 picogram/ml medium) of 25-OH-D₃ or 1,25-(OH) ₂D₃ for various times (0 to 240 minutes). At different time intervals indicated in the Table below, the medium of appropriate wells were aspirated, and the wells were washed three times with a 0.2% bovine serum albumin solution in 50 mM Tris/0.15 M sodium chloride buffer pH 7.4. After the wash the cells in the wells were dissolved in 0.1 N sodium hydroxide, neutralized with 0. 1 N hydrochloric acid, mixed with 5 ml of scintillation fluid (Ecolume) and counted in a beta counter. The amount of cpm associated with the cells was calculated as the percent of total cpm added for each time point studied. Data in the table is expressed as cell associated radioactivity as % of total added. Each reported result is a mean of duplicate determinations.

[3] = Homo sapiens, Keratinocyte, 24 h, Table 5
[4] = 0 minutes, mean of duplicate determinations
[5] = 100 nM, alone, 25-OH-D3 in two experiments, 1,25-(OH)2D3 in one experiment
[6] = 1000 nM, compound alone, consistently observed only at this concentration

CCCCCCCCCCCCCCCCOCC(O)CN(CCO)C(C)=O (stereo not drawn) [pseudoceramide (Formula E)]
activity at 3 µM [1, 3]: 95.9 ± 22%

CCCCCCCCCCCCCCCCN(CC(O)CO)C(C)=O (stereo not drawn) [neoceramide (Formula F), N-(2,3-dihydroxypropyl)-N-(hexadecyl)ethanamide]
activity at 3 µM [1, 3]: 81.1 ± 4.9%

CCCCCCCCCCCCCCCCN(CC(O)CO)C(=O)CCCCC (stereo not drawn) [neoceramide (Formula G), N-(2,3-dihydroxypropyl)-N-(hexadecyl)hexanamide]
activity at 3 µM [1, 3]: 103 ± 12.3%

C=C1/C(=C\C=C2/CCC[C@]3(C)[C@@H]([C@H](C)CCCC(C)(C)O)CC[C@@H]23)C[C@@H](O)C[C@@H]1O [1,25-(OH)2D3, 1,25-dihydroxycholecalciferol]
catabolism by keratinocytes (keratinocytes): catabolized to inactive metabolites rapidly
cell associated radioactivity [2, 4]: 0.8 % of total added
cell associated radioactivity ([2]; 2 minutes): 2.7 % of total added
cell associated radioactivity ([2]; 5 minutes): 4.2 % of total added
cell associated radioactivity ([2]; 10 minutes): 13.0 % of total added
cell associated radioactivity ([2]; 15 minutes): 10.0 % of total added
cell associated radioactivity ([2]; 30 minutes): 20.0 % of total added
cell associated radioactivity ([2]; 60 minutes): 15.6 % of total added
cell associated radioactivity ([2]; 120 minutes): 26.2 % of total added
cell associated radioactivity ([2]; 240 minutes): 30.8 % of total added
rate of uptake by keratinocytes [2]: rapidly taken up
cell growth inhibition [1, 5]: cell growth inhibition was also observed
cell growth inhibition [1, 6]: statistically significant cell growth inhibition

C=C1CC[C@H](O)C/C1=C/C=C1\CCC[C@]2(C)[C@@H]([C@H](C)CCCC(C)C)CC[C@@H]12 [vitamin D3, Vitamin D₃]
growth inhibition ([1]; vitamin D3 employed alone (Table 4)): does not show statistically significant growth inhibition
synergy with the ceramide in inhibiting keratinocyte growth ([1]; with ceramide of Formula A, even at 100 nM vitamin D3): did not show any synergy

CCCCCCCCCCCCCCCCN(CC(O)CO)C(=O)C(O)CCCCCC (stereo not drawn) [neoceramide (Formula H), N-(2,3-dihydroxypropyl)-N-(hexadecyl)-2-hydroxyoctanamide]
activity at 3 µM [1, 3]: 85.7 ± 0.9%

CCCCCCCCCCCCN(CC(O)CO)C(=O)C(O)CCCCCC (stereo not drawn) [neoceramide (Formula M), N-(2,3-dihydroxypropyl)-N-(dodecyl)-2-hydroxyoctnamide]
activity at 3 µM [1, 3]: 81.5 ± 6.4%

CCCCCCCCCCCCCCC(O)CN(CCO)C(=O)CCCCC (stereo not drawn) [pseudoceramide (Formula D)]
activity at 3 µM [1, 3]: 62 ± 12.8%

C=C1CC[C@H](O)C/C1=C/C=C1\CCC[C@]2(C)[C@@H]([C@H](C)CCCC(C)(C)O)CC[C@@H]12 [Formula 25-OH-D3, 25-hydroxycholecalciferol]
cell associated radioactivity [2, 4]: 2.5 % of total added
cell associated radioactivity ([2]; 2 minutes): 3.2 % of total added
cell associated radioactivity ([2]; 5 minutes): 0.3 % of total added
cell associated radioactivity ([2]; 10 minutes): 3.4 % of total added
cell associated radioactivity ([2]; 15 minutes): 8.3 % of total added
cell associated radioactivity ([2]; 30 minutes): 8.1 % of total added
cell associated radioactivity ([2]; 60 minutes): 6.2 % of total added
cell associated radioactivity ([2]; 120 minutes): 6.8 % of total added
cell associated radioactivity ([2]; 240 minutes): 9.8 % of total added
rate of uptake by keratinocytes [2]: substantially slower rate
activity at 0.001 µM ([1]; Homo sapiens, Keratinocyte, 24 h, 1 nM 25-OH-D3, no ceramide, read-out: DNA synthesis, 25-OH-D3 alone): 99.3 ± 1.91%
activity at 0.01 µM ([1]; Homo sapiens, Keratinocyte, 24 h, 10 nM 25-OH-D3, no ceramide, read-out: DNA synthesis, 25-OH-D3 alone): 97.2 ± 5.92%
activity at 0.1 µM ([1]; Homo sapiens, Keratinocyte, 24 h, 100 nM 25-OH-D3, no ceramide, read-out: DNA synthesis, 25-OH-D3 alone): 86.5 ± 5.47%
activity at 1 µM ([1]; Homo sapiens, Keratinocyte, 24 h, 1000 nM 25-OH-D3, no ceramide, read-out: DNA synthesis, 25-OH-D3 alone): 67.8 ± 5.92%
minimal effective concentration ([1]; Homo sapiens, Keratinocyte, 24 h, 25-OH-D3 employed alone, read-out: concentration of 25-OH-D3 at which inhibition of keratinocyte growth was observed): 0.1 to 1 µM
activity at 0.01 µM ([1]; Homo sapiens, Keratinocyte, 24 h, Table 4, 10 nM vitamin D3 or its metabolite, no ceramide, read-out: DNA synthesis, No ceramide): 95.3 ± 6.9%
activity at 0.1 µM ([1]; Homo sapiens, Keratinocyte, 24 h, Table 4, 100 nM vitamin D3 or its metabolite, no ceramide, read-out: DNA synthesis, No ceramide): 88.5 ± 7.2%
activity at 0.01 µM ([1]; Homo sapiens, Keratinocyte, 24 h, Table 5, 10 nM 25-OH-D3, No ceramide, read-out: DNA synthesis, 10 nM 25-OH-D3): 95.3 ± 6.9%
activity at 0.1 µM ([1]; Homo sapiens, Keratinocyte, 24 h, Table 5, 100 nM 25-OH-D3, No ceramide, read-out: DNA synthesis, 100 nM 25-OH-D3): 88.5 ± 7.2%
cell growth inhibition [1, 5]: cell growth inhibition was also observed
cell growth inhibition [1, 6]: statistically significant cell growth inhibition
